Results as given in US10759826B2, “15β-substituted estrone derivatives as selective inhibitors of 17β-hydroxysteroid-dehydrogenases, method of preparation and use thereof” (USTAV ORGANICKE CHEMIE A BIOCHEMIE AV CR, V.V.I., priority 2016, dated 2020).

Key:
[1] = target: T1, estrogen receptor α (ERα) (Homo sapiens, UniProt P03372); assay: ERα luciferase reporter assay in U2OS cells; assay type: cell-based; details: for ER antagonism in words: testing range 10 μmol·l^−1 to 1 nmol·l^−1
T1 construct: expressed in transfected cells
T1 sequence (P03372 1-595): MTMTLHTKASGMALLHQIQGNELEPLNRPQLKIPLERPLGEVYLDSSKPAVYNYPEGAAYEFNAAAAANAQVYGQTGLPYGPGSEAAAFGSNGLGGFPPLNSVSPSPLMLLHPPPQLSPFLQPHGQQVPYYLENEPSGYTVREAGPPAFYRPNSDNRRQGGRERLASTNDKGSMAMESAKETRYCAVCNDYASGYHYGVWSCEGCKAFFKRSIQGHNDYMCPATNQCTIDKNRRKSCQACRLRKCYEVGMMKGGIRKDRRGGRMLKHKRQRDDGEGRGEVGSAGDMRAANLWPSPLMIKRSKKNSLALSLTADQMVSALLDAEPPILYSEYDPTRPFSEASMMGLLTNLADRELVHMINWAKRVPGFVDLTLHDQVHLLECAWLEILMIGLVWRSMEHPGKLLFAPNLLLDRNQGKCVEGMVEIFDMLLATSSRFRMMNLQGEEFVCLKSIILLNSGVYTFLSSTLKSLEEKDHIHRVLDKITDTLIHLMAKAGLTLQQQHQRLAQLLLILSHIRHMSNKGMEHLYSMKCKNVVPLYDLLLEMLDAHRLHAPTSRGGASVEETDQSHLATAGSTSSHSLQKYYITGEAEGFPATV

[2] = target: T2, human 17βHSD type 5 (Homo sapiens, UniProt P42330); assay: Inhibition of recombinant 17βHSD type 5, tritium-labeled substrate conversion; assay type: biochemical; details: 1 μmol · l^−1 test substance
T2 construct: made in house; host or cells: bacteria (Escherichia coli); supernatant of the lysate
T2 sequence (P42330 1-323): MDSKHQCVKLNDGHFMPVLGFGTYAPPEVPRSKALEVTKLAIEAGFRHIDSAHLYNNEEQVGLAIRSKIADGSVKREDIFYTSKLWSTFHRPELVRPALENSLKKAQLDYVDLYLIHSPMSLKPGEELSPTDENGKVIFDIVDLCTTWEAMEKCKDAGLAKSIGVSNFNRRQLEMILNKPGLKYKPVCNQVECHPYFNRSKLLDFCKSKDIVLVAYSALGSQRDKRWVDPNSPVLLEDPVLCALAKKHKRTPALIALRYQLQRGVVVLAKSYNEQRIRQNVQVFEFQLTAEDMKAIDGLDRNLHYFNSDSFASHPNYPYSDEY
Procedure: (§1) The inhibitory activity of the test substances was determined for individual isoenzymes from the 17βHSD family, specifically these were the types 1, 2, 3, 4, 5 and 7. Escherichia coli and mammalian cells expression systems were used for recombinant expression of individual isozymes of human 17βHSD. Only in the case of 17HSD5 the enzyme was partially purified and supernatant obtained by centrifugation of the bacterial lysate was used for testing. Systems expressing specific 17βHSD type were suspended in a reaction buffer and incubated with tritium-labeled substrates and respective cofactors at 37° C. in two parallel tests: the control arrangement (DMSO without the inhibitor) and the test arrangement (DMSO with the inhibitor). DMSO serves as a negative control in this case. After 20-30% of the substrate was converted by the activity of the enzyme to the product in a control test, both tests were terminated. Substrate and product from the test arrangement were isolated by SPE (solid phase extraction), and then separated by reverse phase HPLC. Substrate conversion was determined by integration of the signals of the substrate and product, and was expressed in %. For the purposes of the subsequent calculation of enzyme inhibition, the conversion of the control test was designated as 0% inhibition. All tests were performed in triplicates. IC50 values were subsequently determined by a standard method using the “One Ligand Binding” model of SigmaPlot kinetics module (Schustera et. al. J. Ster. Biochem. Mol. Biol. 2011, 125, 148; Möller et. al. Biioorg. Med. Chem. Lett. 2009, 19, 6740; Möller et. al. PLoS One, 2010, 5, 6, e10969).

[3] = target: T3, human 17βHSD type 1 (Homo sapiens, UniProt P14061); assay: Inhibition of recombinant 17βHSD type 1, tritium-labeled substrate conversion; assay type: biochemical; details: for inhibition at 0.1 µM: 0.1 μmol · l^−1 test substance; for inhibition at 0.1 µM / inhibition at 1 µM: read-out: % of inhibition of human 17βHSD1; for inhibition at 1 µM: 1 μmol · l^−1 test substance; for IC50: read-out: 17βHSD1 IC50
T3 construct: made in house; expressing system suspended in buffer, not purified
T3 sequence (P14061 1-328): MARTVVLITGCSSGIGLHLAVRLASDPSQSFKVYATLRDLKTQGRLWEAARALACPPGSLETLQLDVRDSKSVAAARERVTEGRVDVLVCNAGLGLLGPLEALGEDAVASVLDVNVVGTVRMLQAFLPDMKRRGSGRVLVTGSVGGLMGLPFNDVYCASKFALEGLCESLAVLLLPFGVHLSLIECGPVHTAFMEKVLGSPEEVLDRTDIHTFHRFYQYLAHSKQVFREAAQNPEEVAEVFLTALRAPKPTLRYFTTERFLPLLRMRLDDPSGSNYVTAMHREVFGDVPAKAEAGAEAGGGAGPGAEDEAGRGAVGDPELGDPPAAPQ
Procedure: as §1

[4] = test system: A549; assay: MTT cytotoxicity assay, A549; assay type: cell-based; details: Homo sapiens
From the text: (§2) Compounds 5, 6, 7, 9, 14 and 15 were used for evaluation of antitumor activity. MTT cytotoxicity assay was used in vitro on cell lines derived from normal tissues and from tumors. Specifically, these were the K562 line (human myeloid leukemia), K562-Tax (human myeloid leukemia resistant to taxol and overexpressing PgP protein for multidrug resistance), CEM (T-lymphoblastic leukemia), CEM-DNR bulk (T-lymphoblastic leukemia resistant doxorubicin, lacking the expression of the target gene for inhibitors of topoisomerase II alpha), A549 line (human lung adenocarcinoma), HCT116p53 wt (human colon cancer), HCT116p53−/− (human colon cancer, mutant p53), U2OS line of human osteosarcoma and two fibroblast lines MRC5 and BJ as examples of non-tumor cells. Expression characteristics, profiles of susceptibility to classical antitumor drugs and methodology of the MTT cytotoxicity assay were repeatedly published (e.g. Noskova et al. Neoplasma 2002, 49, 418; S̆arek et. al. J. Med. Chem. 2003, 46, 25, 5402).

[5] = test system: K562-Tax; assay: MTT cytotoxicity assay, K562-Tax; assay type: cell-based; details: Homo sapiens
From the text: as §2

[6] = test system: MRCS; assay: MTT cytotoxicity assay, MRC5 fibroblasts; assay type: cell-based; details: Homo sapiens, Fibroblast, non-tumor fibroblasts
From the text: as §2

[7] = test system: U2OS; assay: MTT cytotoxicity assay, U2OS; assay type: cell-based; details: Homo sapiens
From the text: as §2

[8] = test system: CEM-DNR-bulk; assay: MTT cytotoxicity assay, CEM-DNR-bulk; assay type: cell-based
From the text: as §2

[9] = test system: K562; assay: MTT cytotoxicity assay, K562; assay type: cell-based; details: Homo sapiens
From the text: as §2

[10] = target: T4, human 17βHSD1 (Homo sapiens, UniProt P14061); assay: 17βHSD inhibition in MCF-7 cells transfected with human 17βHSD1, E1 in supernatant; assay type: cell-based; parameters: expressed in transfected cells; host or cells: MCF-7; details: 10 μmol·l^−1
T4 sequence (P14061 1-328): T3 sequence (P14061 1-328)
Procedure: (§3) For this experiment, non-cytotoxic concentrations of estrone derivative (10 μmol·l^−1) were used. E1 levels were determined by an immuno-enzymatic assay.

[11] = test system: BJ; assay: MTT cytotoxicity assay, BJ fibroblasts; assay type: cell-based; details: Homo sapiens, non-tumor fibroblasts
From the text: as §2

[12] = target: T4, human 17βHSD1; assay: 17βHSD inhibition in CHO cells transfected with human 17βHSD1, E1 in supernatant; assay type: cell-based; parameters: expressed in transfected cells; details: 10 μmol·l^−1
Procedure: as §3

[13] = test system: CEM; assay: MTT cytotoxicity assay, CEM; assay type: cell-based; details: Homo sapiens, CCRF-CEM
From the text: as §2

[14] = test system: HCT116p53 wt; assay: MTT cytotoxicity assay, HCT116p53 wt; assay type: cell-based; details: Homo sapiens
From the text: as §2

[15] = test system: HCT116p53-/-; assay: MTT cytotoxicity assay, HCT116p53-/-; assay type: cell-based; details: Homo sapiens
From the text: as §2

C[C@]12CC[C@@H]3c4ccc(O)cc4CC[C@H]3[C@@H]1[C@H](CCc1ccc(C(F)(F)F)cc1)CC2=O [Compound 4, 15β-(4-(Trifluoromethyl)phenethyl)-3-hydroxy-estra-1,3,5(10)-trien-17-one]
melting point: 168 °C
ER antagonism in words [1]: ER antagonist
% of inhibition of human 17βHSD5 [2]: 89%
inhibition at 0.1 µM [3]: 68%
inhibition at 1 µM [3]: 91%
IC50 [3]: 0.042 µM

COc1cccc(CC[C@@H]2CC(=O)[C@@]3(C)CC[C@@H]4c5ccc(O)cc5CC[C@H]4[C@H]23)c1 [Compound 10, 3-Hydroxy-15β-(3-methoxyphenethyl)-estra-1,3,5(10)-trien-17-one]
melting point: 178 °C
inhibition at 0.1 µM [3]: 72%
inhibition at 1 µM [3]: 87%

C[C@]12CC[C@@H]3c4ccc(O)cc4CC[C@H]3[C@@H]1[C@H](CCc1ccccc1)CC2=O [Compound 3, 15β-Phenethyl-3-hydroxy-estra-1,3,5(10)-trien-17-one]
ER antagonism in words [1]: ER antagonist
% of inhibition of human 17βHSD5 [2]: 60%
inhibition at 0.1 µM [3]: 66%
inhibition at 1 µM [3]: 83%
IC50 [3]: 0.05 µM

COc1ccc(CC[C@@H]2CC(=O)[C@@]3(C)CC[C@@H]4c5ccc(O)cc5CC[C@H]4[C@H]23)cc1OC [Compound 11, 3-Hydroxy-15β-(3,4-dimethoxyphenethyl)-estra-1,3,5(10)-trien-17-one]
inhibition at 0.1 µM [3]: 36%
inhibition at 1 µM [3]: 67%

C=C[C@@H]1CC(=O)[C@@]2(C)CC[C@@H]3c4ccc(O)cc4CC[C@H]3[C@H]12 [Compound 2a, 3-Hydroxy-15β-vinyl-estra-1,3,5(10)-trien-17-one]
melting point: 162 °C
estrogenic effect in words [1]: partial estrogenicity
% of inhibition of human 17βHSD5 [2]: 7%
inhibition at 0.1 µM [3]: 79%
inhibition at 1 µM [3]: 95%
isoenzyme selectivity in words ([3]; among 17βHSD types 1, 2, 3, 4, 5, 7): inhibits exclusively the 17βHSD1 isoenzyme
IC50 [3]: 0.017 µM

C[C@]12CC[C@@H]3c4ccc(O)cc4CC[C@H]3[C@@H]1[C@H](CCc1c(F)c(F)c(F)c(F)c1F)CC2=O [Compound 17, 15β-(2,3,4,5,6-Pentafluorophenethyl)-3-hydroxy-estra-1,3,5(10)-trien-17-one]
melting point: 151 °C
% of inhibition of human 17βHSD5 [2]: 31. %
inhibition at 0.1 µM [3]: 56%
inhibition at 1 µM [3]: 90%

C[C@]12CC[C@@H]3c4ccc(O)cc4CC[C@H]3[C@@H]1[C@H](CCc1cc(F)c(F)c(F)c1)CC2=O [Compound 16, 15β-(3,4,5-Trifluorophenethyl)-3-hydroxy-estra-1,3,5(10)-trien-17-one]
melting point: 182 °C
% of inhibition of human 17βHSD5 [2]: 79%
inhibition at 0.1 µM [3]: 67%
inhibition at 1 µM [3]: 95%
IC50 [3]: 0.036 µM

CC(C)(C)Oc1ccc(CC[C@@H]2CC(=O)[C@@]3(C)CC[C@@H]4c5ccc(O)cc5CC[C@H]4[C@H]23)cc1 [Compound 13, 15β-(4-t-Butoxyphenethyl)-3-hydroxy-estra-1,3,5(10)-trien-17-one]
inhibition at 0.1 µM [3]: 62%
inhibition at 1 µM [3]: 80%

C[C@]12CC[C@@H]3c4ccc(O)cc4CC[C@H]3[C@@H]1[C@H](CCc1ccc(O)cc1)CC2=O [Compound 14, 15β-(4-Hydroxyphenethyl)-3-hydroxy-estra-1,3,5(10)-trien-17-one]
IC50 [4]: 41.3 µM
IC50 [5]: 18.9 µM
IC50 [6]: 50 µM
IC50 [7]: 44.6 µM
IC50 [8]: 30.8 µM
IC50 [9]: 22.6 µM
E1 in supernatant, MCF-7 ([10]; 8 hr.): 4298 pg/mL
E1 in supernatant, MCF-7 ([10]; 24 hr.): 2626 pg/mL
% of inhibition of human 17βHSD5 [2]: 42%
inhibition at 0.1 µM [3]: 72%
inhibition at 1 µM [3]: 97%
IC50 [11]: ≥ 50 µM
E1 in supernatant, CHO ([12]; 8 hr.): 3179 pg/mL
E1 in supernatant, CHO ([12]; 24 hr.): 1054 pg/mL
IC50 [13]: 25.8 µM
IC50 [14]: 28.2 µM
IC50 [15]: 32.6 µM

C[C@]12CC[C@@H]3c4ccc(O)cc4CC[C@H]3[C@@H]1[C@H](CCc1ccc3ccccc3c1)CC2=O [Compound 8, 3-Hydroxy-15β-(2-(naphtalen-2-yl)ethyl)-estra-1,3,5(10)-trien-17-one]
melting point: 201 °C
% of inhibition of human 17βHSD5 [2]: 76%
inhibition at 0.1 µM [3]: 77%
inhibition at 1 µM [3]: 92%
IC50 [3]: 0.018 µM
